Results: patent publication US11458091B2, “Compositions and methods for the treatment of opioid overdose” (Opiant Pharmaceuticals, Inc., priority 2016, dated 2022)
Like-named read-outs stand apart in the source and are kept apart here.

Legend:
[1] = for AUCextrap / Cmax/D / Lambda z: mean
[2] = cited from earlier work
[3] = in vivo; cited from earlier work
clinical = settings: human, in vivo; for concentration at 0 h: Hour 0.0; for concentration at 36 h: Hour 36.0; for concentration at 48 h: Hour 48.0; for concentration at 60 h: Hour 60.0; for concentration at 72 h: Hour 72.0; for concentration at 0.08 h: Hour 0.08; for concentration at 2 h: Hour 2.0; for concentration at 3 h: Hour 3.0; for Tmax: median; for concentration at 0.5 h: Hour 0.50; for concentration at 1 h: Hour 1.0; for concentration at 4 h: Hour 4.0
[4] = Intranasal naltrexone with Intravail, AUC (data not presented); format: in vivo; settings: effect of Intravail
Description: This important difference could not be predicted based on structure of the opioid antagonists, or the function of these moieties as opioid antagonists.

[5] = parameters: increase of total exposure (AUC): reference not given here; settings: intranasal formulation with […] Intravail, cited from earlier work
[6] = 3 mg plus […] Intravail IN, N = 14
[7] = 1.5 mg, Mean plasma concentration of nalmefene, 1.5 mg IM
[8] = 1.5 mg, Mean plasma concentration of nalmefene, 1.5 mg IN
[9] = 3 mg, Mean plasma concentration of nalmefene, 3 mg + […] Intravail IN
[10] = 3 mg, Mean plasma concentration of nalmefene, 3 mg IN

C=C1CC[C@@]2(O)[C@H]3Cc4ccc(O)c5c4[C@@]2(CCN3CC2CC2)[C@H]1O5 [Nalmefene, 17-cyclopropylmethyl-4,5α-epoxy-6-methylenemorphinan-3,14-diol]
Mean plasma concentration of nalmefene ([1]; 1.5 mg IM, Hour 0.08): 0.457 ng/mL
Mean plasma concentration of nalmefene ([1]; 1.5 mg IM, Hour 0.17): 1.01 ng/mL
Mean plasma concentration of nalmefene ([1]; 1.5 mg IM, Hour 0.25): 1.43 ng/mL
Mean plasma concentration of nalmefene ([1]; 1.5 mg IM, Hour 0.33): 1.33 ng/mL
Mean plasma concentration of nalmefene ([1]; 1.5 mg IM, Hour 0.50): 1.19 ng/mL
Mean plasma concentration of nalmefene ([1]; 1.5 mg IM, Hour 0.75): 1.14 ng/mL
Mean plasma concentration of nalmefene ([1]; 1.5 mg IM, Hour 1.0): 1.08 ng/mL
Mean plasma concentration of nalmefene ([1]; 1.5 mg IM, Hour 2.0): 1.03 ng/mL
Mean plasma concentration of nalmefene ([1]; 1.5 mg IM, Hour 3.0): 0.878 ng/mL
Mean plasma concentration of nalmefene ([1]; 1.5 mg IM, Hour 4.0): 0.798 ng/mL
Mean plasma concentration of nalmefene ([1]; 1.5 mg IM, Hour 6.0): 0.688 ng/mL
Mean plasma concentration of nalmefene ([1]; 1.5 mg IM, Hour 8.0): 0.603 ng/mL
Mean plasma concentration of nalmefene ([1]; 1.5 mg IM, Hour 12.0): 0.470 ng/mL
Mean plasma concentration of nalmefene ([1]; 1.5 mg IM, Hour 16.0): 0.298 ng/mL
Mean plasma concentration of nalmefene ([1]; 1.5 mg IM, Hour 24.0): 0.128 ng/mL
Mean plasma concentration of nalmefene ([1]; 1.5 mg IM, Hour 30.0): 0.0740 ng/mL
AUCextrap ([1]; 1.5 mg IM, N = 13): 22.6%
Cmax/D ([1]; 1.5 mg IM, N = 13): 1.12 ng/mL/mg
Lambda z ([1]; 1.5 mg IM, N = 13): 0.094 h⁻¹
AUCextrap ([1]; 1.5 mg IN, N = 14): 30.6%
Cmax/D ([1]; 1.5 mg IN, N = 14): 0.646 ng/mL/mg
Lambda z ([1]; 1.5 mg IN, N = 14): 0.131 h⁻¹
AUCextrap ([1]; 3 mg IN, N = 14): 17.9%
Cmax/D ([1]; 3 mg IN, N = 14): 0.731 ng/mL/mg
Lambda z ([1]; 3 mg IN, N = 14): 0.101 h⁻¹
AUCextrap [1, 6]: 14.6%
Cmax/D [1, 6]: 1.65 ng/mL/mg
Lambda z [1, 6]: 0.117 h⁻¹
potency versus naloxone ([2]; milligram-per-milligram basis): equipotent on a milligram-per-milligram basis
clearance ([2]; versus naloxone): slower than naloxone
incidence of common adverse reactions (nausea, vomiting, tachycardia, hypertension, postoperative pain, fever, dizziness, headache, chills, hypotension, vasodilation) [3]: greater than 1%
half-life (clinical; 1.5 mg, 1.5 mg IN, mean, N = 14): 6.74 h
concentration at 0 h (clinical; [7]): 0 ng/mL
concentration at 36 h (clinical; [7]): 0 ng/mL
concentration at 48 h (clinical; [7]): 0 ng/mL
concentration at 60 h (clinical; [7]): 0 ng/mL
concentration at 72 h (clinical; [7]): 0 ng/mL
concentration at 0 h (clinical; [8]): 0 ng/mL
concentration at 0.08 h (clinical; [8]): 0 ng/mL
concentration at […] (clinical; 1.5 mg, Mean plasma concentration of nalmefene, 1.5 mg IN, Hour 0.75): 0.691 ng/mL
concentration at 2 h (clinical; [8]): 0.872 ng/mL
concentration at 3 h (clinical; [8]): 0.712 ng/mL
concentration at 12 h (clinical; 1.5 mg, Mean plasma concentration of nalmefene, 1.5 mg IN, Hour 12.0): 0.141 ng/mL
concentration at 30 h (clinical; 1.5 mg, Mean plasma concentration of nalmefene, 1.5 mg IN, Hour 30.0): 0 ng/mL
concentration at 36 h (clinical; [8]): 0 ng/mL
concentration at 48 h (clinical; [8]): 0 ng/mL
concentration at 60 h (clinical; [8]): 0 ng/mL
concentration at 72 h (clinical; [8]): 0 ng/mL
Tmax (clinical; 1.5 mg, 1.5 mg IN, N = 14): 2 h
AUC(0-t) (clinical; 3 mg, AUC0-t, 3 mg plus […] Intravail IN, mean, N = 14): 17.3 ng·h/mL
half-life (clinical; 3 mg, 3 mg IN, mean, N = 14): 7.84 h
half-life (clinical; 3 mg, 3 mg plus […] Intravail IN, mean, N = 14): 6.78 h
concentration at 0 h (clinical; [9]): 0 ng/mL
concentration at 0.08 h (clinical; [9]): 0.931 ng/mL
concentration at […] (clinical; 3 mg, Mean plasma concentration of nalmefene, 3 mg + […] Intravail IN, Hour 0.17): 3.69 ng/mL
concentration at […] (clinical; 3 mg, Mean plasma concentration of nalmefene, 3 mg + […] Intravail IN, Hour 0.25): 4.38 ng/mL
concentration at […] (clinical; 3 mg, Mean plasma concentration of nalmefene, 3 mg + […] Intravail IN, Hour 0.33): 3.53 ng/mL
concentration at 0.5 h (clinical; [9]): 3.2 ng/mL
concentration at 1 h (clinical; [9]): 2.54 ng/mL
concentration at 2 h (clinical; [9]): 1.99 ng/mL
concentration at 3 h (clinical; [9]): 1.57 ng/mL
concentration at 4 h (clinical; [9]): 1.32 ng/mL
concentration at 6 h (clinical; 3 mg, Mean plasma concentration of nalmefene, 3 mg + […] Intravail IN, Hour 6.0): 0.91 ng/mL
concentration at 36 h (clinical; [9]): 0.0149 ng/mL
concentration at 48 h (clinical; [9]): 0 ng/mL
concentration at 60 h (clinical; [9]): 0 ng/mL
concentration at 72 h (clinical; [9]): 0 ng/mL
concentration at 0 h (clinical; [10]): 0 ng/mL
concentration at 0.08 h (clinical; [10]): 0 ng/mL
concentration at […] (clinical; 3 mg, Mean plasma concentration of nalmefene, 3 mg IN, Hour 0.25): 0.392 ng/mL
concentration at 0.5 h (clinical; [10]): 1.01 ng/mL
concentration at […] (clinical; 3 mg, Mean plasma concentration of nalmefene, 3 mg IN, Hour 0.75): 1.4 ng/mL
concentration at 1 h (clinical; [10]): 1.68 ng/mL
concentration at 3 h (clinical; [10]): 1.53 ng/mL
concentration at 4 h (clinical; [10]): 1.22 ng/mL
concentration at 24 h (clinical; 3 mg, Mean plasma concentration of nalmefene, 3 mg IN, Hour 24.0): 0.125 ng/mL
concentration at 48 h (clinical; [10]): 0 ng/mL
concentration at 60 h (clinical; [10]): 0 ng/mL
concentration at 72 h (clinical; [10]): 0 ng/mL
Tmax (clinical; 3 mg, 3 mg IN, N = 14): 2 h

O=C1CC[C@@]2(O)[C@H]3Cc4ccc(O)c5c4[C@@]2(CCN3CC2CC2)[C@H]1O5 [naltrexone, 17-(cyclopropylmethyl)-4,5α-epoxy-3,14-dihydroxymorphinan-6-one]
AUC [4]: increased significantly

CNS(=O)(=O)Cc1ccc2[nH]cc(CCN(C)C)c2c1 [sumatriptan]
increase of maximum plasma concentration ([5]; in comparison to Imitrex nasal spray): almost four-fold
Tmax [5]: 8 to 10 min
increase of total exposure (AUC) [5]: 32%
